# According to patent US8338473B2, “Derivatives of psammaplin A, a method for their synthesis and their uses for the prevention or treatment of cancer” (Centre National de la Recherche Scientifique, priority 2007, dated 2012):
# Read-outs that look alike come from different tables or passages of the source.
# What was measured:
# [1] = system: HCT-116 colon carcinoma cells xenografted in immunoincompetent mice; conditions: for Normalised tumour weight: mean of n = 10
# [2] = system: breast cancer cells (ZR75.1); assay: Anti-proliferative and apoptogenic action in breast cancer cells; format: cell-based; conditions: data not shown
# p16INK4a = assay: p16 expression levels in U937 cells; format: cell-based, human; conditions: U937, 24 hrs
# Experimental: FIG. 2: a) Methylation specific PCR for the RARβ gene after 16 and 24 hrs of treatment with the indicated compounds; b) Methylation specific PCR for the p16 gene after 24 hrs of the indicated treatments. Samples are representative of real duplicates; c) p16 expression levels in U937 cells after 24 hrs with the indicated treatments; d) DNMT enzymatic in vitro assay carried out with 1.5 and 50 μM of the indicated compounds;
# For the determination of p21^WAF1/CIP1 and p16^INK4 100 μg of total protein extracts were separated on a 15% polyacrylammide gels and blotted. Western blots were shown for p21 (Transduction Laboratories, dilution 1:500), p16 (Santa Cruz) and total ERKs (Santa Cruz) were used to normalise for equal loading. For alpha-tubulin acetylation 25 μg of total protein extracts were separated on a 10% polyacrylamide gels and blotted. Western blots were shown for acetylated alpha-tubulin (Sigma, dilution 1:500) and total ERKs (Santa Cruz) or total tubulin (Sigma) were used to normalise for equal loading.
# HDAC6 = target: T1, HDAC6 (Homo sapiens, UniProt Q9UBN7); assay: Alpha tubulin acetylation in U937 cells (HDAC6 readout); format: cell-based; conditions: U937, 6 and 16 hrs
# T1 construct: Tubuline acetylation and p21 expression levels in U937 cells after 24 hrs with the indicated treatments; endogenous in cells; host or cells: U937
# T1 sequence (Q9UBN7 whole entry): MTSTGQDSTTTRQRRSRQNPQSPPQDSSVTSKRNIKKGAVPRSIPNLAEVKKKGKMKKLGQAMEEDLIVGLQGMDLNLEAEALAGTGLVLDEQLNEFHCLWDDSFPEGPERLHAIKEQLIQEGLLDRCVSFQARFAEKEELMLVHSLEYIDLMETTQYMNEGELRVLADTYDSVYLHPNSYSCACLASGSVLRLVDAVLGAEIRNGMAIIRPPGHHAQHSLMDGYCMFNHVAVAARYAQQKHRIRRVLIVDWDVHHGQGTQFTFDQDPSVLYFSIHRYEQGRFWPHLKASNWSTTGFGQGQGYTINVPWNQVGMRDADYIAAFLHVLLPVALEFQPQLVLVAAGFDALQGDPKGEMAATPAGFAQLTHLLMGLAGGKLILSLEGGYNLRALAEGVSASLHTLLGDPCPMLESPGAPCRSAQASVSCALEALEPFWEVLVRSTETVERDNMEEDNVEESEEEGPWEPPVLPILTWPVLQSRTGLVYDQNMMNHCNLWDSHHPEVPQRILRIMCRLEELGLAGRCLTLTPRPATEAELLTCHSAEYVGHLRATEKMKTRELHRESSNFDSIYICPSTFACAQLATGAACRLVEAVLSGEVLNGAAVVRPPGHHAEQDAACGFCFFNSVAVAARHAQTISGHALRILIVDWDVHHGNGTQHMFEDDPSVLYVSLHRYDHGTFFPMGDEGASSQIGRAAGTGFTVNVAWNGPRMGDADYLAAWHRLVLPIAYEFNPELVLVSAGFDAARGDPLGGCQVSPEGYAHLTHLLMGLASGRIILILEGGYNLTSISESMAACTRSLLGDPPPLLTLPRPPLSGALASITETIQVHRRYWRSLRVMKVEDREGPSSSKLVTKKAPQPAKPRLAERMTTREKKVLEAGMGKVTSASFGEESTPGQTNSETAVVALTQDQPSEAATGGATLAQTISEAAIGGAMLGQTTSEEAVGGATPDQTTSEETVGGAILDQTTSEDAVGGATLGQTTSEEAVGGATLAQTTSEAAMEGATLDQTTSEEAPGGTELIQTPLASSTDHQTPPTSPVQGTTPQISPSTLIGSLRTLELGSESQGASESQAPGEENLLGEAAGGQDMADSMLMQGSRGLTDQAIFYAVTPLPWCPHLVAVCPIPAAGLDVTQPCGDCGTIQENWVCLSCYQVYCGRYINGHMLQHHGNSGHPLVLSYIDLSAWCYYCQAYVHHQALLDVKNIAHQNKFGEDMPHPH
# Experimental: FIG. 1: a) Cell cycle analysis of U937 cells treated for 30 hrs with the indicated compounds used at 1 and 5 μM; b) Caspase 3 apoptotic assay of the indicated compounds after 24 hrs of treatment in the U937 cells; c) Tubulin acetylation and p21 expression levels at 6 and 16 hrs after treatment with the indicated compounds; total tubulin expression levels are used for equal loading; d) Histone H3 acetylation and K9 H3 methylation expression levels at 6 and 16 hrs after treatment with the indicated compounds; total tubulin expression levels are used for equal loading; e) K9, K14, K18 histone H3 acetylation expression levels at 6 and 16 hrs after treatment with the indicated compounds; total ERKs expression levels are used for equal loading; f) HDAC1 enzymatic assay: IP-HDAC1 is incubated with the indicated inhibitors for 24 Hrs; activity is measured as ^3H-acetyl release; g) HDAC4 enzymatic assay: IP-HDAC4 is incubated with the indicated inhibitors for 24 hrs; activity is measured as ^3H-acetyl release. […]
# DU-145 cells = assay: MTT cytotoxicity assay, DU-145; conditions: read-out: IC50 values, MTT cytotoxicity assay; DU-145, 48 h
# histone H3, H3K56 = assay: Post-translational modifications on histone proteins (mass spectrometry, SILAC); format: cell-based, human; conditions: U937 (and other) cells, 24 h, 5 μM
# Experimental: U937 cells were grown in RPMI medium in the presence of lysine and arginine (‘light’) or istope versions, Arg10 and Lys8 (‘heavy’). […]. As controls, cell grown in heavy medium were treated for 24 h with DMSO. Light and heavy cells were 7.5×10^6 cells harvest and mixed in 1:1 ratio (total 15×10^6 cells). The cells were washed twice with PBS and the cell pellet was stored at −80° C.
# Cells were resuspended in 750 μl Triton Extraction Buffer (TEB: PBS containing 0.5% Triton X 100 (v/v), 2 mM phenylmethylsulfonyl fluoride (PMSF) and 0.02% (w/v) NaN3) and lysed on ice for 10 min with gentle stirring. The lysate was centrifuged for 10 min at 6000 rpm and the supernatant discarded. The pellet was washed with 375 μl of TEB and peletted by centrifugation as before. Pellet is resuspended in 20 μl 250 mM HCl and acid extraction of the histones was performed o/n at 4° C.
# Extracted histones were cleared by centrifugation and separated on a 15% acrylamide gel and the gel was stained with Coomassie. The gel region containing the histones was sliced, reduced and alkylated in gel. Proteins were digested o/n with trypsin (Promega). Peptides were eluted from the gel with trifluoroacetic acid. […]
# U937 cells were treated with UVI5008 for 24 hrs and histones were acid extracted. Proteins were digested with trypsin and the peptides were analysed using a nanoLC that is online with a FT-ICR mass spectrometer. […]
# U937 cells = assay: Caspase 3 apoptotic assay in U937 cells; format: cell-based, human; conditions: U937, 24 hrs
# Experimental: FIG. 1: a) Cell cycle analysis of U937 cells treated for 30 hrs with the indicated compounds used at 1 and 5 μM; b) Caspase 3 apoptotic assay of the indicated compounds after 24 hrs of treatment in the U937 cells; c) Tubulin acetylation and p21 expression levels at 6 and 16 hrs after treatment with the indicated compounds; total tubulin expression levels are used for equal loading; d) Histone H3 acetylation and K9 H3 methylation expression levels at 6 and 16 hrs after treatment with the indicated compounds; total tubulin expression levels are used for equal loading; e) K9, K14, K18 histone H3 acetylation expression levels at 6 and 16 hrs after treatment with the indicated compounds; total ERKs expression levels are used for equal loading; f) HDAC1 enzymatic assay: IP-HDAC1 is incubated with the indicated inhibitors for 24 Hrs; activity is measured as ^3H-acetyl release; g) HDAC4 enzymatic assay: IP-HDAC4 is incubated with the indicated inhibitors for 24 hrs; activity is measured as ^3H-acetyl release.
# [3] = system: prostate cancer cells (LnCap); assay: Anti-proliferative and apoptogenic action in prostate cancer cells; format: cell-based; conditions: data not shown
smiles,measurement,setting,value
O=C(NCCSSCCNC(=O)C(Cc1c[nH]c2ccc(Br)cc12)=NO)C(Cc1c[nH]c2ccc(Br)cc12)=NO [UVI5008],Percent Growth Inhibition after 22 days,[1]; 40 mg/kg i.p. every second day,56 ± 7%
same,animals with signs of toxicity (accumulation of intra peritoneal fluid),[1]; 40 mg/kg i.p. every second day,3 animals out of 10
same,Normalised tumour weight,"[1]; day 1, 40 mg/kg i.p. every second day",100 ± 21.5 mg
same,Normalised tumour weight,"[1]; day 4, 40 mg/kg i.p. every second day",180.55 ± 43 mg
same,Normalised tumour weight,"[1]; day 12, 40 mg/kg i.p. every second day",548.73 ± 109.8 mg
same,Normalised tumour weight,"[1]; day 17, 40 mg/kg i.p. every second day",915.28 ± 196.8 mg
same,Normalised tumour weight,"[1]; day 22, 40 mg/kg i.p. every second day",1684.79 ± 262.1 mg
same,anti tumoral activity compared with the reference compounds,[1]; each compound at its MTD,greater anti tumoral activity with respect to SAHA and MS-275
same,anti-proliferative and apoptogenic action,[2],confirmed
same,p16INK4a gene expression,p16INK4a,de-silenced
same,inhibition of HDAC6 (alpha tubulin acetylation),HDAC6,inhibited the activity of HDAC6
same,IC50,DU-145 cells,2400 ± 300 nM
same,post-translational modifications on histone proteins,"histone H3, H3K56","identification of a novel acetylated lysine residue in histone H3, H3K56"
same,apoptogenic effect (caspase 3),U937 cells,strongest apoptogenic effect
same,anti-proliferative and apoptogenic action,[3],confirmed
